Results taken from ChEMBL document CHEMBL5518224, “Rational Design of PARP1/c-Met Dual Inhibitors for Overcoming PARP1 Inhibitor Resistance Induced by c-Met Overexpression” (J Med Chem, 2024).

How the values were obtained:
[1] = molecular target: Poly [ADP-ribose] polymerase 1 (Homo sapiens, UniProt P09874); test: Inhibition of PARP1 (unknown origin) using histone as substrate incubated for 45 mins by absorbance based analysis
[2] = molecular target: Hepatocyte growth factor receptor (Homo sapiens, UniProt P08581); test: Inhibition of c-Met (unknown origin) by HTRF method
Sequence of Hepatocyte growth factor receptor (P08581 whole entry): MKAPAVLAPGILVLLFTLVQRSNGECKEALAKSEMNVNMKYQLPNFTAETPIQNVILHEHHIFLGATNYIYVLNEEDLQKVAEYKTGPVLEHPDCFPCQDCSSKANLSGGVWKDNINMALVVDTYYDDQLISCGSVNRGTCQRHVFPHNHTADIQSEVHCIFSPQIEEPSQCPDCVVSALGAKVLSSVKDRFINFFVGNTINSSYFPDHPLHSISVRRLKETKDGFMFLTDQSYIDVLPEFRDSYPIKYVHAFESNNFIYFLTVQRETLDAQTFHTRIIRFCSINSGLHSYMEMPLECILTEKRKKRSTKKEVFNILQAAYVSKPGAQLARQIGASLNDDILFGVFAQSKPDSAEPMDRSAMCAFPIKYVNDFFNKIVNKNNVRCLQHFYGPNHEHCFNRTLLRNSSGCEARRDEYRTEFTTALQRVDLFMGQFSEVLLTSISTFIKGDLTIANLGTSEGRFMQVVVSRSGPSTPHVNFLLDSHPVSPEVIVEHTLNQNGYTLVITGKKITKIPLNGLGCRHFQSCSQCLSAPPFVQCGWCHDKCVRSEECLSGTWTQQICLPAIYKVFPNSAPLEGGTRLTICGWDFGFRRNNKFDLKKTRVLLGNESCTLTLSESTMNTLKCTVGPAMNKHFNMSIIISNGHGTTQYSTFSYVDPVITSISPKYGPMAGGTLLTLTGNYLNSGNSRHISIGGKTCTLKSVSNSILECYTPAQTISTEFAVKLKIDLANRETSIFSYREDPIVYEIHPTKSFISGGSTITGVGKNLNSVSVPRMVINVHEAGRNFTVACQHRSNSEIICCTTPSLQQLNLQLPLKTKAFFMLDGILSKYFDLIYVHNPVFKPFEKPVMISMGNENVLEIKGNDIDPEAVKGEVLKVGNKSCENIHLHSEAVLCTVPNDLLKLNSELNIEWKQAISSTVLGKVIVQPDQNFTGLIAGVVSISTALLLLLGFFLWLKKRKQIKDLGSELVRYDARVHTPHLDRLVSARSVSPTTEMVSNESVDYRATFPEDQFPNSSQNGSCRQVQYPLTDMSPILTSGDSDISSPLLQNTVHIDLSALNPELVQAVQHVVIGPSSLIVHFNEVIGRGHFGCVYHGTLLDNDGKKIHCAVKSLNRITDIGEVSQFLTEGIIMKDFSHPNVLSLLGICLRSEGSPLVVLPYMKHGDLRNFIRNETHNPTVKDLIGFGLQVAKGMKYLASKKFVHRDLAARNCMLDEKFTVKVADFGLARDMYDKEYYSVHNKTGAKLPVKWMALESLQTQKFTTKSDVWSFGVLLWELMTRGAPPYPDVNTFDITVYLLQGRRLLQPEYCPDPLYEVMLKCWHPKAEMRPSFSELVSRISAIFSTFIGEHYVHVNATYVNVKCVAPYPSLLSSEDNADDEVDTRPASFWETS

[3] = tested on: MDA-MB-231; test: Antiproliferative activity against human MDA-MB-231 cells harboring wild type BRCA and c-Met amplification assessed as inhibition of cell growth incubated for 7 days by MTT assay; format: functional, cell-based; conditions: MDA-MB-231, 168 h
[4] = tested on: MDA-MB-468; test: Antiproliferative activity against human MDA-MB-468 cells harboring wild type BRCA1/2, HR-proficient and non-c-Met amplification assessed as inhibition of cell growth incubated for 7 days by MTT assay; format: functional, cell-based; conditions: MDA-MB-468, 168 h
[5] = Antiproliferative activity against human Olaparib-resistant HCC1937 cells harboring BRCA1 mutant and PARP1 overexpression assessed as inhibition of cell growth incubated for 7 days by MTT assay; format: functional, cell-based; conditions: Olaparib-resistant HCC1937, 168 h
[6] = tested on: Olaparib-resistant HCT116; test: Antiproliferative activity against human Olaparib-resistant HCT116 cells harboring BRCA2 mutant assessed as inhibition of cell growth incubated for 7 days by MTT assay; format: functional, cell-based; conditions: Olaparib-resistant HCT116, 168 h
[7] = tested on: MDA-MB-231; test: Potency index, ratio of olaparib IC50 to test compound IC50 for antiproliferative activity against human MDA-MB-231 cells harboring wild type BRCA and c-Met amplification assessed as inhibition of cell growth incubated for 7 days by MTT assay; format: functional; conditions: time 7 day
[8] = Cytotoxicity against NRK cells assessed as inhibition of cell growth incubated for 72 hrs by MTT assay; format: toxicity, cell-based; conditions: rat
[9] = tested on: MDA-MB-468; test: Potency index, ratio of olaparib IC50 to test compound IC50 for antiproliferative activity against human MDA-MB-468 cells harboring wild type BRCA1/2, HR-proficient and non-c-Met amplification assessed as inhibition of cell growth incubated for 7 days by MTT assay; format: functional; conditions: time 7 day
[10] = tested on: MDA-MB-468; test: Potency index, ratio of crizotinib IC50 to test compound IC50 for antiproliferative activity against human MDA-MB-468 cells harboring wild type BRCA1/2, HR-proficient and non-c-Met amplification assessed as inhibition of cell growth incubated for 7 days by MTT assay; format: functional; conditions: time 7 day
[11] = Potency index, ratio of olaparib IC50 to test compound IC50 for antiproliferative activity against human Olaparib-resistant HCC1937 cells harboring BRCA1 mutant and PARP1 overexpression assessed as inhibition of cell growth incubated for 7 days by MTT assay; format: functional; conditions: time 7 day
[12] = tested on: Olaparib-resistant HCT116; test: Potency index, ratio of olaparib IC50 to test compound IC50 for antiproliferative activity against human Olaparib-resistant HCT116 cells harboring BRCA2 mutant assessed as inhibition of cell growth incubated for 7 days by MTT assay; format: functional; conditions: time 7 day
[13] = tested on: MDA-MB-231; test: Induction of apoptosis in human MDA-MB-231 cells assessed as live cells at 0.5 uM incubated for 4 days by Annexin V-FITC/PI staining based flow cytometry analysis (reference value: 94.6%); format: functional; conditions: time 4 day
[14] = tested on: MDA-MB-231; test: Induction of apoptosis in human MDA-MB-231 cells assessed as early apoptotic cells at 0.5 uM incubated for 4 days by Annexin V-FITC/PI staining based flow cytometry analysis (reference value: 3.88%); format: functional; conditions: time 4 day
[15] = tested on: MDA-MB-231; test: Induction of apoptosis in human MDA-MB-231 cells assessed as late apoptotic cells at 0.5 uM incubated for 4 days by Annexin V-FITC/PI staining based flow cytometry analysis (reference value: 0.81%); format: functional; conditions: time 4 day
[16] = tested on: MDA-MB-231; test: Induction of apoptosis in human MDA-MB-231 cells assessed as dead cells at 0.5 uM incubated for 4 days by Annexin V-FITC/PI staining based flow cytometry analysis (reference value: 0.72%); format: functional; conditions: time 4 day
[17] = tested on: MDA-MB-231; test: Induction of apoptosis in human MDA-MB-231 cells assessed as live cells at 1 uM incubated for 4 days by Annexin V-FITC/PI staining based flow cytometry analysis (reference value: 94.6%); format: functional; conditions: time 4 day
[18] = tested on: MDA-MB-231; test: Induction of apoptosis in human MDA-MB-231 cells assessed as early apoptotic cells at 1 uM incubated for 4 days by Annexin V-FITC/PI staining based flow cytometry analysis (reference value: 3.88%); format: functional; conditions: time 4 day
[19] = tested on: MDA-MB-231; test: Induction of apoptosis in human MDA-MB-231 cells assessed as late apoptotic cells at 1 uM incubated for 4 days by Annexin V-FITC/PI staining based flow cytometry analysis (reference value: 0.81%); format: functional; conditions: time 4 day
[20] = tested on: MDA-MB-231; test: Induction of apoptosis in human MDA-MB-231 cells assessed as dead cells at 1 uM incubated for 4 days by Annexin V-FITC/PI staining based flow cytometry analysis (reference value: 0.72%); format: functional; conditions: time 4 day

Sequence of Poly [ADP-ribose] polymerase 1 (P09874 whole entry): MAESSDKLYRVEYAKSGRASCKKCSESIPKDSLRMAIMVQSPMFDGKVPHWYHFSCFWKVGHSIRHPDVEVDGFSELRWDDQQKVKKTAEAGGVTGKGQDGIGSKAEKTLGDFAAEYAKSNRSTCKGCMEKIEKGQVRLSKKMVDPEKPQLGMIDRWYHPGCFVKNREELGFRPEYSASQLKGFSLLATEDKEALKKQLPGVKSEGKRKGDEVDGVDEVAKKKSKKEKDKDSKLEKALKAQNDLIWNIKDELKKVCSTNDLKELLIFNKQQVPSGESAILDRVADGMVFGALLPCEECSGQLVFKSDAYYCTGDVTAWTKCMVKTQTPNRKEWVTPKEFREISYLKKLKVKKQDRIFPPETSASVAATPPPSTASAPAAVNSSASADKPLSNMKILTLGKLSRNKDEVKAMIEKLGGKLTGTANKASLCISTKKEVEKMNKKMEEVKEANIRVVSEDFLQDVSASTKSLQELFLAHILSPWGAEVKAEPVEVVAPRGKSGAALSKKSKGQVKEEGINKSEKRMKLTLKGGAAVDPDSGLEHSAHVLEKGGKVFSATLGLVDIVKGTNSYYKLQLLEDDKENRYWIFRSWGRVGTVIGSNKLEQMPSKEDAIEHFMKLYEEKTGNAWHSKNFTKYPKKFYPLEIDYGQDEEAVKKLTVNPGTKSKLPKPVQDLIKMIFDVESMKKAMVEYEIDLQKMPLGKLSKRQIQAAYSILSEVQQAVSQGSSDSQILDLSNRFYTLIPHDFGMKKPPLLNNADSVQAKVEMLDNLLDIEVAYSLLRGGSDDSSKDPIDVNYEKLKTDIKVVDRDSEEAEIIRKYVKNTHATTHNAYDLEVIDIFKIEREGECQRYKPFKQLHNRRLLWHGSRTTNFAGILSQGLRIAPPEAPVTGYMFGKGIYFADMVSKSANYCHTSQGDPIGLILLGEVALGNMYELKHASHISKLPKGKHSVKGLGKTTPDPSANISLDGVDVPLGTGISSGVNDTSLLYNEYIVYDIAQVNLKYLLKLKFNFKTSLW

In the case of O=C(c1cc(Cc2n[nH]c(=O)c3ccccc23)ccc1F)N1CCN(c2ccc3c(OCCn4nc(-c5cccnc5)ccc4=O)ccnc3c2)CC1, the IC50 [1] is reported as 0.0033 µM, the IC50 [2] is reported as 0.0322 µM and the IC50 [3] is reported as 0.045 µM. For the same molecule, the IC50 [4] was 0.17 µM, the IC50 [5] was 4.57 µM and the IC50 [6] was 5.33 µM. For the same molecule, the “Ratio IC50” value [7] was 680, the IC50 at 72 h [8] was 8.73 µM and the “Ratio IC50” value [9] was 54. For the same molecule, the “Ratio IC50” value [10] was 26, the “Ratio IC50” value [11] was 4 and the “Ratio IC50” value [12] was 10. For the same molecule, the Activity [13] was 78.5%, the Activity [14] was 8.46% and the Activity [15] was 8.09%. For the same molecule, the Activity [16] was 5%, the Activity [17] was 67.2% and the Activity [18] was 15.8%. It also gave an Activity [19] of 10.6% and an Activity [20] of 6.37%.
